From patent EP2371816A1, “Aminocyclohexenone, their preparation and use as medicament against oxidative stress” (ABIOGEN PHARMA S.p.A., priority 2010, dated 2011)

Legend:
C6 cells (rat glioma) = experiment: In vitro inhibition of CHP-induced oxidative stress (DCF fluorescence) in C6 cells; assay type: cell-based; conditions: 500 µM CHP, compound 4, 20, 100 and 500 µM, 30 minutes at 37 °C, range given for both cell lines together
Procedure: (§1) The method used was essentially the one reported by Rüweler M. et al. ("Inhibition of peroxide-induced radical generation by plant polyphenols in C6 astroglioma cells" (2008) Toxicol in vitro 22, 1377-81), with a few minor modifications.
(§2) The cells were seeded in phenol-red free DMEM (Sigma Aldrich) into 96-well plates with 5% FBS and 20 mM HEPES at a density of 40,000 cells/well. After 48 hours, the medium was substituted by HBSS (Hanks' Balanced Salt Solution, Sigma) containing 10 µM of dihydro-2',7'-dichlorofluorescein diacetate (H2DCF-DA, Sigma Aldrich) and incubated in darkness for 30 minutes at 37 °C, in order to load the cells with fluorescent dye. H2DCF-DA was hydrolyzed enzymatically by the intracellular esterases to form non-fluorescent H2DCF, which was then rapidly oxidized to form 2',7'-dichlorofluorescein (DCF) being highly fluorescent in the presence of reactive species (RS). The intensity of DCF fluorescence is directly proportional to the amount of RS formed.
(§3) After carrying out two washes, the cells were exposed to 500 µM of CHP and various concentrations (4, 20, 100 and 500 µM) of the compounds of the invention for 30 minutes at 37 °C. Fluorescence was then measured, after cell washing, by a microplate reader at an excitation wavelength of 485 nm and an emission wavelength of 535 nm.
(§4) Six wells per plate per concentration of test composition (compound + CHP) and per control (HBSS without CHP) were measured and 12 wells were used as reference for CHP-induced stress. In addition, each 96-well plate contained 6 wells that received the highest concentration of the tested compounds without CHP, to investigate whether the compounds of the invention alone were able to induce cellular radical formation.
(§5) When using this assay, it should be borne in mind that DCF fluorescence is a generalized indicator of oxidative stress rather than of any particular reactive species, i.e. it is not a direct assay for H2O2 or other reactive species (Halliwell B, Whiteman M. (2004) "Measuring reactive species and oxidative damage in vivo and in cell culture: how should you do it and what do the results mean?" Br. J. Pharmacol. 142 231-255). Therefore, when an increase in DCF fluorescence induced by exposure of cells to CHP was measured, as was undertaken in these assays, it was not possible to deduce which reactive species was responsible. Inhibition of CHP-induced fluorescence was evaluated by means of different concentrations of the compounds of the invention and comparative compounds such as Trolox and edaravone.

[1] = tested on: BAEC cells (bovine aortic endothelial); experiment: In vitro inhibition of CHP-induced oxidative stress (DCF fluorescence) in BAEC cells; assay type: cell-based; conditions: 500 µM CHP, compound 4, 20, 100 and 500 µM, 30 minutes at 37 °C, range given for both cell lines together
Procedure: as §1, §2, §3, §4, §5

[2] = TEAC method (Trolox Equivalent Antioxidant Capacity Assay); conditions: ratio of gradient to gradient of reference (trolox); 37 °C, 650 nm, pH 4.5
Text: This assay is used to measure the total antioxidant activity of pure substances, biological fluids and plant compounds and is based on the reaction of antioxidants with the cation radical ABTS^˙+ (2,2'-azinobis(3-ethylbenzothiazolin-6-sulphonate)). This cation radical is metastable and has to be generated just before the experiment by reacting ABTS with hydrogen peroxide in the presence of HRP.
This radical can be reduced, with consequent loss of absorbance, by an antioxidant whose scavenging capacity can be measured spectrophotometrically at 650 nm. The test is carried out at 37 °C and the results are obtained from a comparison with Trolox (a synthetic antioxidant and hydrophilic analogue of vitamin E).
The ABTS solution S1 was prepared as follows: • 20 mg of ABTS were added to 50 mM of citric acid buffer (40 ml) at pH=4.5 and to the resulting solution there was added an aqueous solution of HRP (4.4 mg, 400 µl) and an aqueous solution of H2O2 (10 µl of a 30% solution diluted with 16.3 ml of water).
For each of the compounds (2), (6) and (7), as synthesized above, there was prepared a 600 µM solution in water, methanol or DMSO according to its solubility, as well as a Trolox solution as reference.
Each solution was diluted to produce 6 solutions each at a concentration between 25 µM and 300 µM. From each of the diluted and divided solutions, there were withdrawn 20 µl to which 200 µl of solution S1 were then added.
The decrease in absorbance of each solution thus obtained was monitored at 650 nm until a stable value was reached (about 90 minutes).
For each set of 6 solutions and for the reference trolox solution, the absorption was given in graph form as a function of the amount of compound (nmol) in the solution. The gradient of the straight line obtained by linear interpolation was determined according to the least squares method. The TEAC value of each compound of the invention is given in the table below and is expressed as the ratio between the gradient of the resulting straight line and the gradient of the reference (trolox) straight line.

[3] = tested on: cerebral oxidative stress induced in mice by doxorubicin; experiment: In vivo assay of cerebral oxidative stress induced in mice by doxorubicin
Procedure: The assay was carried out on compounds (1) and (3)-(6) and on edaravone (E) as comparative compound.
10 mice were used for each treatment group. For each compound 50 mg/kg were administered intraperitoneally (IP) for three consecutive days (day 0, 1 and 2); half the animals (5) also received IP 16.7 mg/kg of doxorubicin immediately after the first treatment (day 0). On the day after the last administration (day 3) the animals were killed by neck dislocation and the brains were removed, weighed and frozen in liquid nitrogen.
For the analyses of oxidative stress, 100 mg/ml of brain homogenate was prepared in Hebe buffer (pH 7.4 EDTA/HEPES^(**)) containing a mixture of enzyme inhibitors (Leupeptin, Pepstatin, Aprotinin, BHA). • ^(*) Hypotonic Extraction Buffer • ^(**) 4-2-hydroxyethyl-1-piperazinyl-ethanesulphonic acid
The evaluation parameters were: • BrW/BWi: ratio between final brain weight and initial body weight (day 0); • Prot. Hmg: total proteins in the homogenate (BCA method, i.e. bicinchoninic acid); • Prot. Ox: oxidized proteins in the Hmg by means of a colorimetric method using […] (DNPH); • GSH: reduced glutathione in the supernatant (sn) of the Hmg, obtained after precipitation with metaphosphoric acid (MPA), by means of a colorimetric method using […] (DTNB); • CAT: catalase in the Hmg by a colorimetric method using potassium dichromate; • SOD: superoxide dismutase by a colorimetric method using SOD Reagent (xanthine, EDTA, nitroblue tetrazole, Na2CO3, BSA, i.e. bovine serum albumin); • GST: glutathione S-transferase in the supernatant by a colorimetric method using chlorodinitrobenzene (CDNB) and GSH; and • GPx: glutathione peroxidase in the supernatant after addition of GSH and tert butyl hydroperoxide (t-BuOOH), heating and precipitation with MPA; followed by GSH method with DTNB.
All the parameters, with the exclusion of Brain/BWi and Prot. Hmg, were normalized for total Hmg proteins (Table 3). The D value standard deviations and the % incidence relative to V are given in italics.
The mean % effect, on all the parameters simultaneously, of the triple treatment in the healthy animals, as mean percentage variation relative to the vehicle (table 4). This value is useful as an approximate safety index of the oxidative state of the brain, i.e. the capacity of the compounds of the invention not to alter cerebral homeostasis in healthy animals.
The effect of the tested compounds on the "oxidized" animals was given as % inhibition relative to the percentage variation due to doxorubicin alone. The effect of the compounds on the oxidized animals can be expressed both as a function of the values of the vehicle (healthy, vehicle only) and as a function of the value of its own control (healthy, compound only): • Vehicle: percentage [(Compound+D)/V]x100/[(V+D)/V]x100 • Its own: percentage [(Compound+D)/Compound]x100/[(V+D)/V]x100

[4] = % variation relative to the vehicle, healthy animals, 50 mg/kg IP x3 days (D = doxorubicin alone)

Structure (SMILES)	Inhibition of CHP-induced fluorescence (C6 cells (rat glioma))	Inhibition of CHP-induced fluorescence [1]	TEAC [2]	Brain/BWi [3, 4] [%]	CAT/pr [3, 4] [%]	GPX/pr [3, 4] [%]	GSH/pr [3, 4] [%]	GST/pr [3, 4] [%]	Prot. Hmg [3, 4] [%]	Prot. Ox/pr [3, 4] [%]	SOD/pr [3, 4] [%]	overall inhibitory effect on the doxorubicin-induced oxidation ([3]; both with respect to the Vehicle and Its own)	Mean % variation relative to the vehicle ([3]; healthy animals, 50 mg/kg IP days 0, 1 and 2, mean over all parameters, approximate safety index (D = doxorubicin alone), 50 mg/kg) [%]
Cc1c(C)c2c(c(C)c1O)CCC(C)(C(=O)O)O2 (stereo not drawn) [Trolox, reference compound]	10-50%	10-50%	–	–	–	–	–	–	–	–	–	–	–
CC1=NN(c2ccccc2)C(=O)C1 [edaravone, reference compound]	10-50%	10-50%	0.9	2.7	-5.0	-6.7	-5.5	-3.1	3.7	-2.3	-2.2	about 75%	-2.7
